Laboratory results reported in patent US6949552B2, “Remedial agent for anxiety neurosis or depression and piperazine derivative” (Taisho Pharmaceutical Co., Ltd., priority 2000, dated 2005).
pIC50: −log10 of the molar value. Where a name gives a salt, the structure may show the parent alone.

How the values were obtained:
human MC4 receptor = target: T1, human MC4 receptor (Homo sapiens, UniProt P32245); assay: MC4 receptor binding assay; settings: HEK-293 cell membranes expressing human MC4 receptor; [125I]Nle4-D-Phe7-α-MSH 0.2 nM; 25° C., 120 minutes
T1 construct: purchased Biolinks Co; host or cells: HEK-293 cell membranes
T1 sequence (P32245 whole entry): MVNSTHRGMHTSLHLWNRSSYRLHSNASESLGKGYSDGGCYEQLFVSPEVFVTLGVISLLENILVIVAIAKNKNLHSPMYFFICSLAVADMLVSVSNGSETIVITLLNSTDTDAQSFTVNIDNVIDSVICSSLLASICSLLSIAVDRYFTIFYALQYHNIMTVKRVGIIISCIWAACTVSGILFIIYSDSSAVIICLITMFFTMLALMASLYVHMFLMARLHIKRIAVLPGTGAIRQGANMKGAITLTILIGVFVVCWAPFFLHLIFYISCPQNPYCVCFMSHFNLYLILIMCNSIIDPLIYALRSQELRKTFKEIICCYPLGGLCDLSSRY
Method: Experiment 1 [MC4 Receptor Binding Assay]
MC4 receptor binding assay was carried out according to the method described in Pharmacology & Taxicology, 79, 161-165, 1996, HEK-293 cell membranes expressing the human MC4 receptor were purchased from Biolinks Co. The cell membranes were homogenized in a 50 mM Tris hydrochloric acid buffer solution (pH 7.4) containing 2 mM ethylenediamine tetraacetic acid, 10 mM calcium chloride and 100 μM phenylmethanesulfonyl-fluoride. The homogenate was centrifuged at 48,000×g for 20 minutes at 4° C. The precipitate obtained by centrifugation was again homogenized in the same buffer solution, and the homogenate was centrifuged at 48,000×g for 20 minutes at 4° C. This procedure was repeated twice. The precipitate was suspended in 50 mM Tris hydrochloric acid buffer solution (pH 7.4) containing 2 mM ethylenediamine tetraacetic acid, 10 mM calcium chloride, 100 μM phenylmethanesulfonylfluoride and 0.1% bovine serum albumin to adjust to a protein concentration of 100 μg/ml to give a crude membrane preparation which was used for the binding assay. […] The radioactivity on the filter paper was measured in a gamma-counter. […] The IC50 value was calculated from the inhibition curve in the concentration range of 10^−9-10^−5.

Male SD rats [1] = assay: Anxiogenic-like activity in Vogel test in rat (Proconflict test); type: in vivo; settings: intracerebroventricular administration, 30 minutes before test; electric shock 0.4 mA; 3 minutes; FIG. 1
Method: Anxiogenic-like activity inducing action by α-MSH and MTII in Vogel test in rat (Proconflict test) was studied.
α-MSH and MTII were purchased from Peninsula Laboratories. Male SD rats weighing 220 to 240 g (Charles River Japan Inc.) were used for animals. Rats deprived of drinking water for 48 hours were divided into 5 animals for each group. The test compound was administered to rats intracerbroventricularly at 10 μl/2 min. of the test compound which was prepared by dissolving a predetermined amount of α-MSH or MTII in saline containing 0.1% bovine serum albumin. To control rats which were not administered test compound, saline containing 0.1% bovine serum albumin was administered intracerebroventricularly at 10 μl/2 min. Thirty minutes after the administration, rats were placed in a apparatus for the test, and drinking behaviors during the time of free access to drinking water for 3 minutes were measured. During the time of free access to drinking water, an electric shock (0.4 mA) was released, every 2 seconds of cumulative licking time to the drinking nozzle. The evaluation of this experiment was carried out using the number of the electric shocks.

Male SD rats [2] = assay: Anti-anxiety action in Vogel test (Conflict test) in rats; type: in vivo, rat; settings: subcutaneous 1 mg/kg, 3 mg/kg or 10 mg/kg, 30 minutes before test; electric shock 1.0 mA; 3 minutes; FIG. 2
Method: Anti-anxiety action of Compound 4 in Table 1 in Vogel test (Conflict test) in rats was studied.
Male SD rats weighing 220 to 240 g (Charles River Japan Inc.) were used. Rats deprived of drinking water for 48 hours were divided into 10 animals for each group. To rats of group to be administered with the test compound was subcutaneously administered the test compound which was prepared by dissolving a predetermined amount of Compound 4 in Table 1 in saline for injection and adding 0.5 M aqueous sodium hydroxide solution to adjust to pH 4-5. Thirty minutes after the administration, rats were placed in a apparatus for the test, and drinking behaviors during the time of free access to drinking water for 3 minutes were measured. During the time of free access to drinking water, an electric shock (1.0 mA) was released, every 2 seconds of cumulative licking time to the drinking nozzle. The evaluation of this experiment was carried out using the number of the electric shocks.

Male SD rats [3] = assay: Anti-anxiety action in forced swim stress-induced anxiety model of rats (elevated plus-maze test); type: in vivo, rat; settings: subcutaneous 0.3 mg/kg, 1 mg/kg or 3 mg/kg, 30 minutes before 2-minute forced swim stress, 5-minute period, FIG. 3
Method: Anti-anxiety action of Compound 4 in Table 1 in forced swim stress-induced anxiety model of rats was studied.
Male SD rats weighing 220 to 240 g (Charles River Japan Inc.) were used. Rats were divided into 10 animals for each group. To rats of group to be administered with the test compound was subcutaneously administered the test compound which was prepared by dissolving a predetermined amount of the test drug in saline for injection and adding 0.5 M aqueous sodium hydroxide solution to adjust to pH 4-5. Thirty minutes after the administration, rats were exposed to a forced swim stress by placing in a black cylinder (20 cm internal diameter, 40 cm high) containing 25 cm deep of water maintained at 25° C. Duration of the forced swim stress was 2 minutes, and the anti-anxiety action was studied by the elevated plus-maze test, which was carried out 5 minutes after the forced swim stress.
The elevated plus-maze used for the test consisted of open arms (10 cm wide, 50 cm long) and close arms (10 cm wide, 50 cm long), and the open arms and the enclosed arms were covered with 1 cm-high and 40 cm-high transparent Plexiglas, respectively. The plus-maze was placed in 50 cm high from the floor. Luminosity at the center of the maze was 40 lux. […] The amount of time spent in open arms of the maze was recorded during a 5-minute period.

[4] = system: olfactory bulbectomized rats; assay: Anti-depressant action in olfactory bulbectomized rats (open field); type: in vivo, rat; settings: subcutaneous 1 mg/kg, 3 mg/kg or 10 mg/kg once a day for 2 weeks; test 24 hours after final administration; 3 minutes; FIG. 4
Source text: Anti-depressant action of Compound 4 in Table 1 in olfactory bulbectomized rats was studied. Male SD rats weighing 220 to 240 g (Charles River Japan Inc.) were used. Rats were anesthetized with sodium pentobarbital, the olfactory bulbs were removed by suction using a metal pipe linked to a water aspirator. Two weeks after the removal of the olfactory bulbs, rats were divided into 10 to 11 animals for each group. The rats of one group were subcutaneously administered once a day for 2 weeks with the test drug which was prepared by dissolving a predetermined amount of the test drug in saline for injection and adding 0.5 M aqueous sodium hydroxide solution to adjust to pH 4-5. Twenty four hours after the final administration, the rats were placed in the center of a circular open field apparatus (70 cm diameter 25 blocks), and the number of crossings among blocks during 3 minutes was counted.

[5] = system: recombinant human melanocortin receptors; assay: Antagonism in recombinant human melanocortin receptors

melting point	Compound	further results
170 to 173 °C	CN1CCN(C(CN2CCN(CCCCc3noc4cc(F)ccc34)CC2)c2ccc(F)cc2)CC1.O=C(O)/C=C\C(=O)O.O=C(O)/C=C\C(=O)O.O=C(O)/C=C\C(=O)O (stereo not shown)	
152 to 154 °C	CN1CCN(C(CN2CCN(CCCCc3cccc4ccccc34)CC2)c2ccc(N)cc2)CC1.O=C(O)/C=C\C(=O)O.O=C(O)/C=C\C(=O)O.O=C(O)/C=C\C(=O)O (stereo not shown)	
171 to 173 °C	N=C(N)N1CCN(C(CN2CCN(CCCCc3cccc4ccccc34)CC2)c2ccc(F)cc2)CC1.O=C(O)/C=C\C(=O)O.O=C(O)/C=C\C(=O)O.O=C(O)/C=C\C(=O)O (stereo not shown)	
183 to 185 °C	COc1ccc2ccccc2c1CCCCN1CCN(CC(c2ccc(F)cc2)N2CCN(C(C)C)CC2)CC1.Cl.Cl.Cl.Cl (stereo not shown)	
156 to 160 °C	CN1CCC(O)(C(CN2CCN(CCCCc3cccc4ccccc34)CC2)c2ccc(F)cc2)CC1.Cl.Cl.Cl (stereo not shown)	
138 to 140 °C	COc1ccc(C(CN2CCN(CCCCc3cccc4ccccc34)CC2)N2CCN(C)CC2)cc1.O=C(O)/C=C\C(=O)O.O=C(O)/C=C\C(=O)O.O=C(O)/C=C\C(=O)O (stereo not shown)	
127 to 129 °C	CC(C)N1CCN(C(CN2CCN(CCCCc3cccc4ccccc34)CC2)c2ccc(F)cc2)CC1.O=C(O)/C=C\C(=O)O.O=C(O)/C=C\C(=O)O.O=C(O)/C=C\C(=O)O (stereo not shown)	
193 to 195 °C	CN1CCN(C(CN2CCN(CCCCc3cccc4ccccc34)CC2)c2ccc(F)cc2)CC1.Cl.Cl.Cl.Cl (stereo not shown) [Compound 4, 1-[2-(4-fluorophenyl)-2-(4-methylpiperazino)ethyl]-4-(4-naphthalen-1-yl-butyl)piperazine tetrahydrochloride]	pIC50 (human MC4 receptor): 6.79; decreased number of times of drinking water (number of the electric shocks) caused by electric shock (Male SD rats [2]): significantly, dose-dependently antagonized; decreased amount of time spent in open arms after forced swim stress (Male SD rats [3]): significantly, dose-dependently antagonized; increased number of crossings among blocks in the open field [4]: significantly, dose-dependently antagonized; action in recombinant human melanocortin receptors (selectivity) [5]: high selective antagonist

Further lines, the compound ahead of its results:

Compound	melting point	further results
CC(C)Oc1ccc2ccccc2c1CCCCN1CCN(CC(c2ccc(F)cc2)N2CCN(C(C)C)CC2)CC1.O=C(O)/C=C\C(=O)O.O=C(O)/C=C\C(=O)O.O=C(O)/C=C\C(=O)O (stereo not shown)	167 to 169 °C	
CN1CCN(C(CN2CCN(CCCCc3cccc4ccccc34)CC2)c2ccc(F)cc2)CC1 (single isomer, unassigned; (-)) [Compound 6, (−)-1-[2-(4-Fluorophenyl)-2-(4-methylpiperazino)ethyl]-4-[4-naphthalen-1-yl-butyl]piperazine hydrochloride]		pIC50 (human MC4 receptor): 7.05
α-MSH (Ac-SYSMEHFRWGKPV-NH2; ends and bridges not checked; UniProt P01189 138-150, looked up) [melanocyte stimulating hormone (melanocortin produced from POMC), purchased from Peninsula Laboratories]		number of times of drinking water (number of the electric shocks) in comparison with the control group (Male SD rats [1]): dose-dependently, significantly decreased
MTII		number of times of drinking water (number of the electric shocks) in comparison with the control group (Male SD rats [1]): dose-dependently, significantly decreased
CN1CCN(C(CN2CCN(CCCCc3cccc4ccccc34)CC2)c2ccc(F)cc2)CC1.Cl (stereo not shown)	193 to 195 °C	
COc1ccc2ccccc2c1CCCCN1CCN(CC(c2ccc(F)cc2)C2CCN(C(C)C)CC2)CC1.Cl.Cl.Cl (stereo not shown)	233 to 235 °C	
